The subject of experiment [1] is PRP (ADP platelet agglutination). The experiment can be described thus: ADP platelet agglutination inhibitory action by PRP. Type of experiment: cell-based. Details: reference not given here. The conditions noted are these: 37° C., 0.025 μm filtrate. Here is the method:
Fifty (50) μl of the fat emulsion obtained in Examples 1 and 2 was transferred into 950 μl of saline or 2 % bovine serum albumin (BSA) and incubated at 37° C. for 1, 3, and 10 minutes. Next, the ADP platelet agglutination inhibitory action by PRP was determined using the filtrate which had been passed through a 0.025 μm filter. A known quantity of the dilution before filtration was added to PRP and incubated at 37° C. for 1 minute. Thereafter, ADP agglutination was induced to construct a dose-response curve. The platelet agglutination inhibitory action was calculated from this curve.

For another experiment, the system named is human platelets. The experiment can be described thus: Time course of the formation of cyclic AMP using human platelets (production capability and maintenance of cyclic AMP). The experiment is classed as cell-based. The conditions noted are these: for Relative value (C-AMP production): first time point of the series = 100; for C-AMP production: human platelets, 37° C. How it is done:
The time course of the formation of cyclic AMP by the fat emulsion in the invention was determined using human platelets so as to compare with the time course of the compound which was not emulsified in fat. Human blood 50 ml was collected using 1 part of 3.8 % sodium citrate for 9 parts of blood. The blood sample was centrifuged at 1300 rpm for 10 minutes. The upper layer was taken out as PRP (platelet-rich plasma) and centrifuged at 3000 rpm for 20 minutes. The precipitate thus obtained (platelets) was suspended in 2 ml of Tris buffered solution-saline-glucose-EDTA (TSG-EDTA) (pH 7.4).
The fat emulsion, which had previously been transferred in a plastic tube containing 350 μl of TSG-EDIA and 50 μl of platelet suspension and incubated at 37° C., was supplemented with 50 μl of 5mM isobutylmethylxanthin dissolved in saline, and 2 minutes later, reactions were stopped with 0.5 ml of 10% trichloroacetic acid (TCA). The cells were destroyed by thawing the lyophilized specimen in order to release intracellular cyclic AMP. After removal of TCA with watersaturated ether, the content of C-AMP was determined by radio immunoassay technique.

The values below come from patent US5124352A, “Fat emulsions containing isocarbacyclin” (Teijin Limited, priority 1985, dated 1992).

As for `CCCCCC(O)C=CC1C(O)CC2C=C(CCCCC(=O)OC)CC21` (centres unmarked) [(IV), isocarbacyclin methyl ester], the “Platelet agglutination inhibitory action” value is 65.4% in experiment [1] (2% BSA, incubation time 1 min) and 56.2% in experiment [1] (2% BSA, incubation time 10 min).
For `CCCCCC(O)C=CC1C(O)CC2C=C(CCCCC(=O)O)CC21` (stereo not drawn) [Compound (I), 9(0)-methano-Δ^6(9α) -PGI1], the “Relative value (C-AMP production)” value with human platelets (Time 0 min) turned out to be 100%; with human platelets (Time 30 min), 63%; in the experiment on human platelets (Time 60 min), 31%. Also, the C-AMP production in the experiment on human platelets (Time 0 min) is 320 pico mol; in the experiment on human platelets (Time 30 min), 200 pico mol; with human platelets (Time 60 min) it was 100 pico mol. Also, the “Platelet agglutination inhibitory action” value was found to be 100.1% in experiment [1] (2% BSA, incubation time 1 min); 107.7% in experiment [1] (2% BSA, incubation time 10 min); 41.1% in experiment [1] (Saline, incubation time 10 min).
As to `CCCCCC(O)C=CC1C(O)CC2C=C(CCCCC(=O)O)CC21` (centres unmarked) [Compound (II), 16,17,18,19,20-pentanor-15-pentylisocarbacyclin], the “Relative value (C-AMP production)” value is reported as 100% with human platelets (Time 10 min), 74% in the experiment with human platelets (Time 30 min) and 27% in the experiment on human platelets (Time 60 min). The C-AMP production in the experiment with human platelets (Time 10 min) stood at 430 pico mol; in the experiment on human platelets (Time 30 min), 320 pico mol; with human platelets (Time 60 min), 120 pico mol.
For the compound `COC(=O)CCCC=C1OC2CC(O)C(C=CC(O)C3CCCC3)C2C1F` (centres unmarked) [Compound (III), 7-fluoro-16,17,18,19, 20-pentanor-15-cyclopentylprostacyclin methyl ester], the entries for the “Relative value (C-AMP production)” value with human platelets (Time 30 min), with human platelets (Time 60 min) and with human platelets (Time 120 min) were 100%, 90% and 40%, respectively. Also, the C-AMP production with human platelets (Time 30 min) was 100 pico mol; in the experiment on human platelets (Time 60 min) it was 90 pico mol; in the experiment on human platelets (Time 120 min) it was 40 pico mol.
